Earlier results, collected in US20050186288A1, “Compositions and methods for the prophylaxis and treatment of aphthous ulcers and herpes simplex lesions” (Chiou Consulting Inc., priority 2002, published 2005).

System: herpes infection (wound or ulcer)
Conditions: salt alone

**Q.** Which “effect in treating herpes infection (wound or ulcer)” value does the source give for magnesium pentosan polysulfate here?
**A.** The value was “ineffective”.

**Q.** For zinc pentosan polysulfate, which “effect in treating herpes infection (wound or ulcer)” value is on record?
**A.** Its value is “ineffective”.
